Experimental data from PubChem BioAssay (NCI).
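Cells were grown in 96-well plates and exposed to each compound for 48 hours at five concentrations; endpoints were interpolated linearly between bracketing concentrations, or set to the highest concentration if not reached. GI50 is the concentration that inhibits growth by half. TGI marks complete inhibition of growth.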

Key:
Assay in all cases: DTP human tumour cell line panel, 48 h
[1] = tested on: SR leukemia
[2] = tested on: KM12 colon
[3] = tested on: DLD-1 colon
[4] = tested on: SNB-78 CNS
[5] = tested on: UO-31 renal
[6] = tested on: M14 melanoma
[7] = tested on: SW-620 colon
[8] = tested on: OVCAR-4 ovarian
[9] = tested on: SK-OV-3 ovarian
[10] = tested on: IGROV1 ovarian
[11] = tested on: HCC-2998 colon
[12] = tested on: CAKI-1 renal
[13] = tested on: UACC-257 melanoma
[14] = tested on: K-562 leukemia
[15] = tested on: M19-MEL melanoma
[16] = tested on: HOP-62 NSCLC
[17] = tested on: HCT-15 colon
[18] = tested on: HOP-92 NSCLC
[19] = tested on: LOX IMVI melanoma
[20] = tested on: SN12C renal
[21] = tested on: SF-295 CNS
[22] = tested on: OVCAR-5 ovarian
[23] = tested on: KM20L2 colon
[24] = tested on: UACC-62 melanoma
[25] = tested on: SK-MEL-5 melanoma
[26] = tested on: MALME-3M melanoma
[27] = tested on: SK-MEL-28 melanoma
[28] = tested on: NCI-H226 lung
[29] = tested on: TK-10 renal
[30] = tested on: SF-268 CNS
[31] = tested on: A549 NSCLC
[32] = tested on: SNB-19 CNS
[33] = tested on: MOLT-4 leukemia
[34] = tested on: HCT-116 colon
[35] = tested on: OVCAR-3 ovarian
[36] = tested on: HOP-18 NSCLC
[37] = tested on: ACHN renal
[38] = tested on: HT29 colon
[39] = tested on: SNB-75 CNS
[40] = tested on: A498 renal
[41] = tested on: CCRF-CEM leukemia
[42] = tested on: OVCAR-8 ovarian
[43] = tested on: SK-MEL-2 melanoma
[44] = tested on: XF 498 CNS
[45] = tested on: EKVX NSCLC
[46] = tested on: NCI-H23 lung
[47] = tested on: RXF 393 renal
[48] = tested on: SF-539 CNS
[49] = tested on: NCI-H460 lung
[50] = tested on: NCI-H522 lung
[51] = tested on: LXFL 529 NSCLC
[52] = tested on: 786-0 renal
[53] = tested on: RPMI-8226 leukemia
[54] = tested on: U251 CNS

`O=C1C(C(Nc2ccccc2)c2ccccc2)=C([O-])c2ccccc21.O=C1C(C(Nc2ccccc2)c2ccccc2)=C([O-])c2ccccc21.[Ni+2]` (stereo not drawn) was tested, and the GI50 [1] was 3.72 µM, the TGI [1] was > 100 µM and the GI50 [2] was 4.01 µM. The TGI [2] was > 100 µM, the GI50 [3] was 4.2 µM and the TGI [3] was > 100 µM. For the same molecule, the GI50 [4] was 7.6 µM, the TGI [4] was > 100 µM and the GI50 [5] was 11.5 µM. The TGI [5] was > 100 µM, the GI50 [6] was 7.99 µM and the TGI [6] was > 100 µM. The GI50 [7] was 5.3 µM, the TGI [7] was > 100 µM and the GI50 [8] was 16.5 µM. The TGI [8] was > 100 µM, the GI50 [9] was 2.66 µM and the TGI [9] was 6.78 µM. For the same molecule, the GI50 [10] was 4.9 µM, the TGI [10] was > 100 µM and the GI50 [11] was 4.41 µM. The TGI [11] was > 100 µM, the GI50 [12] was 28.8 µM and the TGI [12] was > 100 µM. For the same molecule, the GI50 [13] was 42.3 µM, the TGI [13] was > 100 µM and the GI50 [14] was 3.59 µM. The TGI [14] was > 100 µM, the GI50 [15] was 11 µM and the TGI [15] was > 100 µM. The GI50 [16] was 14.2 µM, the TGI [16] was > 100 µM and the GI50 [17] was 4.09 µM. The TGI [17] was > 100 µM, the GI50 [18] was 6.14 µM and the TGI [18] was 55.6 µM. The GI50 [19] was 5.81 µM, the TGI [19] was > 100 µM and the GI50 [20] was 4.56 µM. For the same molecule, the TGI [20] was > 100 µM, the GI50 [21] was 3.69 µM and the TGI [21] was > 100 µM. The GI50 [22] was 3.55 µM, the TGI [22] was 49.5 µM and the GI50 [23] was 24.4 µM. For the same molecule, the TGI [23] was 77.7 µM, the GI50 [24] was 6.59 µM and the TGI [24] was 51 µM. It also gave a GI50 [25] of 1.34 µM, a TGI [25] of 7.45 µM and a GI50 [26] of 7.91 µM. The TGI [26] was > 100 µM, the GI50 [27] was 9.95 µM and the TGI [27] was > 100 µM. The GI50 [28] was 17.9 µM, the TGI [28] was > 100 µM and the GI50 [29] was 12.8 µM. For the same molecule, the TGI [29] was > 100 µM, the GI50 [30] was 3.35 µM and the TGI [30] was > 100 µM. For the same molecule, the GI50 [31] was 4.17 µM, the TGI [31] was > 100 µM and the GI50 [32] was 25.6 µM. For the same molecule, the TGI [32] was 56.7 µM, the GI50 [33] was 3.71 µM and the TGI [33] was > 100 µM. The GI50 [34] was 3.05 µM, the TGI [34] was > 100 µM and the GI50 [35] was 22.2 µM. For the same molecule, the TGI [35] was 66.4 µM, the GI50 [36] was 31.1 µM and the TGI [36] was > 100 µM. For the same molecule, the GI50 [37] was 7.81 µM, the TGI [37] was > 100 µM and the GI50 [38] was 4 µM. For the same molecule, the TGI [38] was > 100 µM, the GI50 [39] was 6.34 µM and the TGI [39] was 94.7 µM. The GI50 [40] was 7.57 µM, the TGI [40] was > 100 µM and the GI50 [41] was 3.96 µM. The TGI [41] was > 100 µM, the GI50 [42] was 4.43 µM and the TGI [42] was > 100 µM. It also gave a GI50 [43] of 3.32 µM, a TGI [43] of 15.2 µM and a GI50 [44] of 4.9 µM. It also gave a TGI [44] of 54.8 µM, a GI50 [45] of 3.33 µM and a TGI [45] of 9.82 µM. The GI50 [46] was 5.23 µM, the TGI [46] was > 100 µM and the GI50 [47] was 4.9 µM. The TGI [47] was 85 µM, the GI50 [48] was 3.66 µM and the TGI [48] was > 100 µM. The GI50 [49] was 4.46 µM and the TGI [49] was > 100 µM.
In the case of `COc1ccc2ccnc(Cc3ccc(OCc4ccccc4)c(OC)c3)c2c1`, the TGI [50] is reported as 72.7 µM, the TGI [2] is reported as 37.1 µM and the TGI [3] is reported as > 100 µM. It also gave a TGI [4] of 67.6 µM, a TGI [5] of 19.8 µM and a TGI [6] of 33.2 µM. The TGI [7] was > 100 µM, the TGI [8] was 34 µM and the TGI [51] was 80.6 µM. For the same molecule, the TGI [11] was 38.4 µM, the TGI [12] was > 100 µM and the TGI [13] was 44.7 µM. The TGI [14] was > 100 µM, the TGI [16] was 35.3 µM and the TGI [17] was 44.9 µM. The TGI [20] was 29.8 µM, the TGI [52] was 44.5 µM and the TGI [21] was 68.1 µM. The TGI [22] was > 100 µM, the TGI [23] was > 100 µM and the TGI [25] was 29.9 µM. It also gave a TGI [26] of 33.9 µM, a TGI [27] of 33.4 µM and a TGI [29] of 93.2 µM. The TGI [30] was 70.3 µM, the TGI [31] was 79.5 µM and the TGI [32] was > 100 µM. For the same molecule, the TGI [33] was 46.6 µM, the TGI [34] was 29.7 µM and the TGI [53] was 65.3 µM. It also gave a TGI [35] of 34.2 µM, a TGI [36] of 62.5 µM and a TGI [37] of 76.3 µM. For the same molecule, the TGI [38] was > 100 µM, the TGI [39] was 76.7 µM and the TGI [40] was 54.5 µM. It also gave a TGI [41] of 83.6 µM, a TGI [42] of 43.5 µM and a TGI [54] of 44.6 µM. For the same molecule, the TGI [43] was 39.7 µM, the TGI [44] was 31.2 µM and the TGI [45] was 42.7 µM. It also gave a TGI [46] of 53 µM, a TGI [48] of 32.3 µM and a TGI [49] of 37.8 µM.
